In patent publication US20080188528A1, “Modulators of C3a receptor and methods of use thereof” (priority 2006, published 2008):
Where a name gives a salt, the structure may show the parent alone.

What follows are compounds tested against T1, human C3a receptor (C3aR) (Homo sapiens, UniProt Q16581) (assay: Inhibition of human [125I]-C3a binding to human C3a receptor (SPA, membranes of HEK293 cells expressing recombinant C3aR)). Conditions: 0.1 nM [125I]-C3a, 3 hours at room temperature; Table 4.
T1 construct: expressed in transfected cells
T1 sequence (Q16581 1-482): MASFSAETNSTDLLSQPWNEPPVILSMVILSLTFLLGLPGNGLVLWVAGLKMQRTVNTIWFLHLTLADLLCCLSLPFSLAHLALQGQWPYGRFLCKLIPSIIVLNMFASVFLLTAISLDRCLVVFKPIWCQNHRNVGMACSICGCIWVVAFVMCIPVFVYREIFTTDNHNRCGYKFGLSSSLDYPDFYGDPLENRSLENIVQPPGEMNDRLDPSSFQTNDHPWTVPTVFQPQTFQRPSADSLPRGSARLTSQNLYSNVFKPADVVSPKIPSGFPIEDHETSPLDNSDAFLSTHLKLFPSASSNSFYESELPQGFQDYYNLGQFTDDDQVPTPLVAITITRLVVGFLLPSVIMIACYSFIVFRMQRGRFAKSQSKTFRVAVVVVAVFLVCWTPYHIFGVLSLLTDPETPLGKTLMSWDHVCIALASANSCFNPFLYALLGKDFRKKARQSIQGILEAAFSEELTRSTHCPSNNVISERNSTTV
In short: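 HEK293 C3aR membranes were pre-coupled to WGA SPA beads and incubated 3 h at room temperature with 0.1 nM [125I]-C3a in HEPES pH 7.4 buffer containing 0.25% BSA and 0.2% CHAPS, DMSO ≤1%. Nonspecific binding was defined with 1 μM unlabeled C3a. IC50 came from nonlinear least-squares fitting.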

`Cc1ccc(S(=O)(=O)NCCC[C@H](NC(=O)c2cccn(Cc3ccccc3)c2=O)C(=O)O)cc1` [Compound 67, (2S)-2-{[(1-benzyl-2-oxo-1,2-dihydropyridin-3-yl)carbonyl]amino}-5-{[(4-methylphenyl)sulfonyl]amino}pentanoic acid] and `Cc1ccc(S(=O)(=O)NC(=N)NCCC[C@H](NC(=O)c2cccn(Cc3ccccc3)c2=O)C(=O)O)cc1` [Compound 76, (2S)-2-{[(1-benzyl-2-oxo-1,2-dihydropyridin-3-yl)carbonyl]amino}-5-{[(4-methylphenyl)sulfonyl]carbamimidamido} pentanoic acid] fall in the same range of IC50: 500 to 20000 nM for the first, 500 to 20000 nM for the second.

First: Cc1ccc(S(=O)(=O)NCCC[C@H](NC(=O)c2cccn(C(c3ccccc3)c3ccccc3)c2=O)C(=O)O)cc1 [Compound 68, (2S)-2-({[1-(diphenylmethyl)-2-oxo-1,2-dihydropyridin-3-yl]carbonyl}amino)-5-{[(4-methylphenyl)sulfonyl]amino}pentanoic acid]
Second: Cc1ccc(S(=O)(=O)NC(=N)NCCC[C@H](NC(=O)c2cccn(C(c3ccccc3)c3ccccc3)c2=O)C(=O)O)cc1 [Compound 77, (2S)-2-({[1-(diphenylmethyl)-2-oxo-1,2-dihydropyridin-3-yl]carbonyl}amino)-5-{[(4-methylphenyl)sulfonyl]carbamimidamido}pentanoic acid]
The IC50 of the first is higher: 500 to 20000 nM for the first, 50 to 500 nM for the second. The second is the more potent here.

`CS(=O)(=O)NCCC[C@H](NC(=O)c1cccn(C(c2ccccc2)c2ccccc2)c1=O)C(=O)O` [Compound 69, (S)-2-(1-benzhydryl-2-oxo-1,2-dihydropyridine-3-carboxamido)-5-(methylsulfonamido)pentanoic acid] and `N=C(NCCC[C@H](NC(=O)c1cccn(C(c2ccccc2)c2ccccc2)c1=O)C(=O)O)N[N+](=O)[O-]` [Compound 74, (2S)-2-({[1-(diphenylmethyl)-2-oxo-1,2-dihydropyridin-3-yl]carbonyl}amino)-5-(nitrocarbamimidamido)pentanoic acid] fall in the same range of IC50: 50 to 500 nM for the first, 50 to 500 nM for the second.

`O=C(N[C@@H](CCCNC1=NCCN1)C(=O)O)c1cccn(Cc2ccccc2)c1=O` [Compound 70, (2S)-2-{[(1-benzyl-2-oxo-1,2-dihydropyridin-3-yl)carbonyl]amino}-5-(4,5-dihydro-1H-imidazol-2-ylamino)pentanoic acid•TFA] and `N=C(NCCC[C@H](NC(=O)c1cccn(Cc2ccccc2)c1=O)C(=O)O)N[N+](=O)[O-]` [Compound 73, (2S)-2-{[(1-benzyl-2-oxo-1,2-dihydropyridin-3-yl)carbonyl]amino}-5-(nitrocarbamimidamido)pentanoic acid] fall in the same range of IC50: 500 to 20000 nM for the first, 500 to 20000 nM for the second.

First: O=C(N[C@@H](CCCNC1=NCCN1)C(=O)O)c1cccn(C(c2ccccc2)c2ccccc2)c1=O [Compound 71, (2S)-5-(4,5-dihydro-1H-imidazol-2-ylamino)-2-({[1-(diphenylmethyl)-2-oxo-1,2-dihydropyridin-3-yl]carbonyl}amino)pentanoic acid•TFA]
Second: COC(=O)[C@H](CCCNC(=N)N[N+](=O)[O-])NC(=O)c1cccn(C(c2ccccc2)c2ccccc2)c1=O [Compound 75, methyl (2S)-2-({[1-(diphenylmethyl)-2-oxo-1,2-dihydropyridin-3-yl]carbonyl}amino)-5-(nitrocarbamimidamido)pentanoate]
The IC50 of the first is lower: less than 50 nM for the first, 500 to 20000 nM for the second.

Compared with `N=C(N)Nc1cccc([C@H](NC(=O)c2cccn(Cc3ccccc3)c2=O)C(=O)O)c1` [Compound 72, (2S)-{[(1-benzyl-2-oxo-1,2-dihydropyridin-3-yl)carbonyl]amino}(3-carbamimidamidophenyl)acetic acid•TFA], `Cc1c(C)c(S(=O)(=O)NC(=N)Nc2cccc([C@H](NC(=O)c3cccn(Cc4ccccc4)c3=O)C(=O)O)c2)c(C)c2c1OC(C)(C)CC2` [Compound 78, (2S)-{[(1-benzyl-2-oxo-1,2-dihydropyridin-3-yl)carbonyl]amino}(3-{[(2,2,5,7,8-pentamethyl-3,4-dihydro-2H-chromen-6-yl)sulfonyl]carbamimidamido}phenyl)acetic acid] is higher in IC50: 50 to 500 nM for the first, 500 to 20000 nM for the second.
